Reference: patent US20020156084A1, “Use of N-benzyl piperazine and analogues as quality of life enhancers” (priority 2001, published 2002)

Assay: Administration of N-Benzyl Piperazine (appetite suppressant / anti-depressant effect)
Assay type: in vivo
Settings: administration of the compound; no test details given
Source text: This Patent description is of the use of N-Benzyl Piperazine and Analogues as Quality of Life Enhancers. Administration of N-Benzyl Piperazine has shown to be effective as an appetite suppressant and as a mild anti-depressant. Yeah though it be known that N-Benzyl Piperazine is a CNS stimulant and that stimulants usually are appetite suppressants, it was unknown and unobvious that the binding affinities for the serotonin receptor would be in “perfect” harmony with the norepinephrine receptor to eliminate the side effects of nervousness and the like. It was also unobvious that the increased levels of serotonin and norepinephrine would facilitate individuals in their daily lives to accomplish goals. That is why it is referred to as a Quality of Life Enhancer. Quality of Life Enhancer is defined as a weight loss supplement, appetite suppressant, anti-depressant, cognition enhancer or diet supplement.
Administration of the compounds is usually in the form of their pharmaceutically acceptable acid addition salts. Doses are within the range if 10 mg to 300 mg per day, but usually are in pills of 75 mg two times a day. Once desired effect is attained 75 mg per day is sufficient.

Q: For c1ccc(CN2CCNCC2)cc1 [N-Benzyl Piperazine, 1-benzylpiperazine], which “effectiveness as a mild anti-depressant” value is on record?
A: Its value is “effective”.
